Experimental data published in PubChem BioAssay (NCI).
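Test compounds were applied to cells in 96-well plates for 48 hours at 5 doses. At the GI50, growth is halved. TGI marks complete inhibition of growth.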

Legend:
Test in all cases: NCI anticancer screen, dose series, 48 h
RPMI-8226 leukemia = test system: RPMI-8226 leukemia
A549 NSCLC = test system: A549 NSCLC
SW-620 colon = test system: SW-620 colon
UO-31 renal = test system: UO-31 renal
OVCAR-5 ovarian = test system: OVCAR-5 ovarian
OVCAR-8 ovarian = test system: OVCAR-8 ovarian
NCI-H460 lung = test system: NCI-H460 lung
MALME-3M melanoma = test system: MALME-3M melanoma
MDA-MB-231 breast = test system: MDA-MB-231 breast
DU-145 prostate = test system: DU-145 prostate

SMILES	TGI (RPMI-8226 leukemia) [µM]	TGI (A549 NSCLC) [µM]	TGI (SW-620 colon) [µM]	TGI (UO-31 renal) [µM]	TGI (OVCAR-5 ovarian) [µM]	TGI (OVCAR-8 ovarian) [µM]	TGI (NCI-H460 lung) [µM]	TGI (MALME-3M melanoma) [µM]	TGI (MDA-MB-231 breast) [µM]	GI50 (RPMI-8226 leukemia) [µM]	GI50 (SW-620 colon) [µM]	GI50 (UO-31 renal) [µM]	GI50 (OVCAR-5 ovarian) [µM]	GI50 (OVCAR-8 ovarian) [µM]	GI50 (NCI-H460 lung) [µM]	GI50 (DU-145 prostate) [µM]	TGI (DU-145 prostate) [µM]	GI50 (MDA-MB-231 breast) [µM]
C#CC1(O)CCC2[C@@H]3CCc4cc(Oc5nc(F)nc(-c6c7ccccc7c(SCC)n6CCC)n5)ccc4C3CC[C@@]21C (stereo not given in full)	> 100	> 100	> 100	> 100	> 100	> 100	> 100	> 100	–	–	–	–	–	–	–	–	–	–
Cc1ccc(S(=O)(=O)OC(COC(=O)c2ccccc2)C(OS(=O)(=O)c2ccc(C)cc2)C(OS(=O)(=O)c2ccc(C)cc2)C(COC(=O)c2ccccc2)OS(=O)(=O)c2ccc(C)cc2)cc1 (stereo not given)	> 100	> 100	> 100	> 100	–	> 100	> 100	> 100	–	–	–	–	–	–	–	–	–	–
COC(=O)[C@@H](C)[C@H]1CC[C@@](C)(CCC2=C(C)CC3C=C(C)CCC3C2(C)C)OO1 (stereo not given in full)	5.98	3.12	1.01	2.76	3.27	4.09	3.57	3.96	–	–	–	–	–	–	–	–	–	–
C1CN(P2(N3CC3)=NP(N3CC3)(N3CC3)=NP(N3CC3)(N3CC3)=N2)CCO1 (stereo not given)	> 100	> 100	> 100	> 100	> 100	> 100	> 100	> 100	–	–	–	–	–	–	–	–	–	–
C=CCC1(C(=O)OC(C)(C)C)C(OC)=C(C(=O)OC(C)(C)C)C2C1C(C(=O)OC(C)(C)C)=C(OC)C2(CC=C)C(=O)OC(C)(C)C (stereo not given)	> 100	> 100	> 100	> 100	> 100	> 100	–	–	–	–	–	–	–	–	–	–	–	–
COC(=O)C1CC(OC(C)=O)C=C2C(=O)CCC21 (stereo not given)	57.7	> 100	39.4	80.3	–	37.6	35.2	63.8	–	–	–	–	–	–	–	–	–	–
COC(=O)C(=O)C(C(=O)C(=O)Nc1ccccc1OC)c1nc2ccc([N+](=O)[O-])cc2[nH]c1=O (stereo not given)	> 100	> 100	> 100	> 100	> 100	> 100	> 100	> 100	> 100	–	–	–	–	–	–	–	–	–
CC(C)(C)N/N=C(\C(=O)Nc1nc(=S)[nH][nH]1)C1C(=O)Nc2ccccc2S1=O (stereo not given)	> 100	> 100	> 100	> 100	> 100	> 100	> 100	> 100	–	–	–	–	–	–	–	–	–	–
CCOC(=O)C(Cc1ccccc1)NC(=O)c1[nH]cnc1/N=N/N(C)C (stereo not given)	> 100	> 100	> 100	> 100	> 100	> 100	> 100	> 100	–	–	–	–	–	–	–	–	–	–
COc1cc(NS(C)(=O)=O)ccc1NCc1c2ccccc2nc2ccccc12	71.1	> 100	> 100	> 100	> 100	99.1	> 100	> 100	–	–	–	–	–	–	–	–	–	–
COc1cc(C(=O)O[C@H](C(=O)NCCN(C)CCNC(=O)[C@@H](OC(=O)c2cc(OC)cc3c(C)cccc23)[C@]2(C)CO2)[C@]2(C)CO2)c2cccc(C)c2c1	5.85	–	0.152	> 100	2.75	< 0.0324	1.61	–	1.58	0.246	< 0.01	0.417	0.217	< 0.01	< 0.01	< 0.0328	0.162	0.264
CC1=NOC(=O)/C1=C/c1ccc([N+](=O)[O-])cc1	–	> 100	> 100	> 100	> 100	> 100	> 100	> 100	–	–	–	–	–	–	–	–	–	–
O=S(=O)(N=NC=C1c2ccccc2N(O)c2ccccc21)c1ccc(Cl)cc1	> 100	> 100	> 100	> 100	> 100	> 100	> 100	> 100	–	–	–	–	–	–	–	–	–	–
CCOc1ccc(NCC2CC/C(=C\c3ccccc3OC)C2=O)cc1 (stereo not given)	3.91	35.6	14.3	26.2	32.5	13	–	27.6	–	–	–	–	–	–	–	–	–	–
CC(C(=O)c1ccccc1)C1(O)C(=O)Nc2ccc(Cl)cc21 (stereo not given)	> 100	> 100	> 100	89.7	> 100	> 100	> 100	> 100	–	–	–	–	–	–	–	–	–	–
N#CC(C#N)=Cc1ccc(CP(=O)(O)O)cc1	> 100	> 100	> 100	> 100	> 100	> 100	> 100	> 100	–	–	–	–	–	–	–	–	–	–
Cc1cc(C)c(C(=O)O)c(SSc2cc(C)cc(C)c2C(=O)O)c1	–	> 100	> 100	> 100	> 100	> 100	> 100	> 100	–	–	–	–	–	–	–	–	–	–
c1ccc(SC23C4C5C6C4C2C6C53)nc1 (stereo not given)	> 54	> 100	> 100	> 100	> 100	> 100	> 100	> 100	–	–	–	–	–	–	–	–	–	–

SMILES	TGI (RPMI-8226 leukemia) [µM]	TGI (A549 NSCLC) [µM]	TGI (SW-620 colon) [µM]	TGI (UO-31 renal) [µM]	TGI (OVCAR-5 ovarian) [µM]	TGI (OVCAR-8 ovarian) [µM]	TGI (NCI-H460 lung) [µM]	TGI (MALME-3M melanoma) [µM]	TGI (MDA-MB-231 breast) [µM]	GI50 (RPMI-8226 leukemia) [µM]	GI50 (SW-620 colon) [µM]	GI50 (UO-31 renal) [µM]	GI50 (OVCAR-5 ovarian) [µM]	GI50 (OVCAR-8 ovarian) [µM]	GI50 (NCI-H460 lung) [µM]	GI50 (DU-145 prostate) [µM]	TGI (DU-145 prostate) [µM]	GI50 (MDA-MB-231 breast) [µM]
CCOC(=O)C1=C(C)N(NC(N)=O)C2(N)N(NC(N)=O)C(C)=C(C(=O)OCC)C12C(=O)OCC (stereo not given)	> 100	> 100	> 100	> 100	> 100	> 100	> 100	> 100	–	–	–	–	–	–	–	–	–	–
COc1ccc2oc(-c3ccc(OC)c(OC)c3OC)cc(=O)c2c1	43	> 100	> 100	–	> 100	–	–	> 100	–	–	–	–	–	–	–	–	–	–
COc1cc(C(C)c2cc3c(cc2OCCNC(=O)COc2cc4c(cc2C(C)c2cc(OC)c(OC)c(OC)c2)OCO4)OCO3)cc(OC)c1OC (stereo not given)	–	> 100	> 100	> 100	> 100	> 100	49	> 100	–	–	–	–	–	–	–	–	–	–
CCCCc1c2cnccc2c(CCCC)c2c1[nH]c1ccccc12	17.6	29.5	> 100	29.8	> 100	31.1	> 100	37.8	–	–	–	–	–	–	–	–	–	–
O=C1CNC(=O)c2[nH]cnc2N1	> 100	> 100	> 100	> 100	> 100	> 100	> 100	> 100	–	–	–	–	–	–	–	–	–	–
CCn1c2c(c3ccccc31)[C@@H](c1ccc(Cl)cc1)CC1C(=O)N(c3ccccc3)C(=O)C21 (stereo not given in full)	> 100	> 100	> 100	> 100	> 100	> 100	> 100	> 100	–	–	–	–	–	–	–	–	–	–
O=C(Nc1ccccc1-c1nn(CN2CCNCC2)c(=S)n(CN2CCNCC2)c1=O)C(F)(F)F	–	52.4	22.2	32.6	45	53.5	53.3	32.9	–	–	–	–	–	–	–	–	–	–
Cc1ccc(S(=O)(=O)c2ccc(C)cc2[N+](=O)[O-])cc1	> 100	> 100	> 100	> 100	> 100	–	> 100	> 100	–	–	–	–	–	–	–	–	–	–
CCOC(=O)C12C(C(=O)OC)=C(C)N(NC(=O)Nc3ccccc3)C1(N)N(NC(=O)Nc1ccccc1)C(C)=C2C(=O)OC (stereo not given)	74	> 100	> 100	> 100	> 100	> 100	> 94.2	50.7	–	–	–	–	–	–	–	–	–	–
COc1ccc2c(c1)NC1(O)c3ccccc3C(=O)C21O (stereo not given)	> 100	> 100	> 100	> 100	–	> 100	> 100	> 100	–	–	–	–	–	–	–	–	–	–
CCCN(CCC)C(=O)c1nc(N)nc(-c2ccc(OC)cc2)c1-c1ccc(OC)cc1	> 100	> 100	> 100	> 100	> 100	> 100	> 100	> 100	–	–	–	–	–	–	–	–	–	–
C/C(CC(=O)Nc1ccccc1C)=N/NS(=O)(=O)c1ccc(C)cc1	> 100	> 100	> 100	> 100	> 100	> 100	> 100	> 100	–	–	–	–	–	–	–	–	–	–
COC1CCC(OC)C(C2(C3CC(OC)CCC3OC)OC(=O)c3ccccc32)C1 (stereo not given)	> 100	> 100	> 100	> 100	> 100	> 100	> 100	> 100	–	–	–	–	–	–	–	–	–	–
COc1cc2c(cc1OC)C1Cc3ccc(OC)c(OC)c3C[N+]1([O-])CC2 (stereo not given)	> 100	> 100	> 100	> 100	> 100	> 100	> 100	> 100	–	–	–	–	–	–	–	–	–	–
Cc1cccc(C)c1N1C(=O)C(=O)C(c2nc3ccccc3s2)/C(=N/NC(=O)c2ccccc2O)C1=O (stereo not given)	> 69.2	> 100	> 100	22.4	> 100	> 100	> 92	> 100	–	–	–	–	–	–	–	–	–	–
COC(=O)C(CC(=O)Nc1ccc(Cl)c(Cl)c1)C(=O)C(=O)Nc1ccc(Cl)c(Cl)c1 (stereo not given)	> 100	> 100	> 100	> 100	> 100	> 100	> 100	> 100	–	–	–	–	–	–	–	–	–	–
NC(=O)c1cccc(OCC(O)CO)c1 (stereo not given)	–	> 100	> 100	> 100	> 100	> 100	> 100	–	> 100	–	–	–	–	–	–	–	> 100	–
